Laboratory results: PMC7309560, “Discovery of Small Molecule Inhibitors Targeting the Sonic Hedgehog” (Frontiers in Chemistry, 2020)
Where two headings read alike, the source gives them in different places.

Experiments:
[1] = test system: Hh signaling pathway (8 × Gli-binding site luciferase reporter, Shh-LIGHT2 cells); experiment: Dual-luciferase reporter assay in Shh-LIGHT2 cells; assay type: cell-based; conditions: for inhibition at 5 µM: read-out: Inhibition rate for cell assay at 5 μM; for IC50: Shh Light2, 36 h, ShhN-conditioned medium, 36 h, mean ± SD for three independent experiments
Protocol: A dual-luciferase reporter assay was performed as previously described (Zhan et al., [2014]; Kong et al., [2015]). Shh-LIGHT2 cells, an Hh activity reporter cell line derived from NIH-3T3 cells by stably expressing 8 × Gli-binding site luciferase reporter (8 × GBS-luciferase) plasmid provided by Sasaki et al. ([1999]) and pRL-Renilla luciferase plasmid, were seeded into 96-well plates. After 24 h, ShhN-conditioned medium (ShhN CM) was added, and cells were exposed to molecules. The luciferase activities of cells were measured 36 h later with a Dual-Luciferase Reporter Assay System (E1960, Promega), according to the manufacturer's instructions, in a luminometer (Molecular Devices, Sunnyvale, CA). The firefly luciferase values were normalized to the Renilla luciferase activities, and IC50 values were fitted with the Hill equation with OriginPro 9.
We further tested the 45 Shh-binding compounds to assess their effects on the Hh signaling pathway. […] Compounds with similar framework were merged, resulting in seven hits.
All 22 derivatives of 7 were tested at 5 μM with the dual-luciferase reporter cell assay (Table S6).

[2] = test system: Gli1 mRNA expression in Ptch+/−p53−/− medulloblastoma cells; experiment: Real-time PCR of Gli1 mRNA in Ptch+/-p53-/- medulloblastoma cells; assay type: cell-based, mice; conditions: RT-qPCR, 36 h exposure, normalized to GUSB
Protocol: Ptch^+/−p53^−/− medulloblastoma cells were cultivated from spontaneous medulloblastoma developed by ptch^+/−; p53^−/− mice. All procedures were preapproved by the Animal Care and Use Committee of Fudan University and performed according to institutional policies. Briefly, medulloblastoma tissues were mechanically minced and digested by collagenase. The cells were routinely cultured using Neurobasal A medium (Invitrogen) plus B-27 supplement (Invitrogen), EGF 20 ng/mL (Invitrogen), bFGF 20 ng/mL (Invitrogen), non-essential amino acids, N-acetylcysteine 60 μg/mL. GDC-0449 was purchased from Biovision (Milpitas, CA). […]
Total RNA was extracted from cells using an RNAiso Plus Kit (TaKaRa, Dalian, China) according to the manufacturer's instructions and processed directly to cDNA by reverse transcription with a SuperScript III Kit (TaKaRa, Dalian, China). Semi-quantitative PCR amplification was conducted using Stratagene mx3005p (Agilent). All quantitative PCR amplifications were performed in triplicate with a SYBR Green Kit (TaKaRa, Dalian, China) in an iCycleriQ system (Bio-Rad, Hercules, CA). […]
Levels of the Shh-induced transcription factor Gli1 are higher in Ptch^+/−p53^−/− medulloblastoma from mice than in control tissues as a result of increased Hh signaling activity (Wetmore et al., [2001]). […] We measured the expression of Gli1 mRNA using RT-qPCR (Figure 2). […]

Shh = Shh inhibitory activity in cellular assays, ref Stanton et al., 2009 (Table 1 prints ref. 14), cited from earlier work
ShhN-EGFP = target: T1, ShhN-EGFP (Homo sapiens, UniProt Q15465); experiment: Microscale thermophoresis (MST) binding
T1 construct: PET-28(a)-human ShhN (Shh 24-197) plasmid; His (N); made in house; host or cells: Escherichia coli Rosetta (DE3)
Protocol: Chuanmao Zhang. EGFP gene was subcloned into pET-28(a)-human ShhN vector to build ShhN-EGFP plasmids. All mutations were introduced by PCR and confirmed by sequencing with GENEWIZ (China).
Measurements were performed using a Monolith NT. […] MST-optimized buffer (50 mM Tris·HCl, pH 7.4, 150 mM NaCl, 10 mM MgCl2, 0.1% Tween-20, 0.1% Pluronic-F127, 5% DMSO) was applied. Measurements were carried out using blue LED color with 20% LED power and 40% MST power. The concentration of ShhN-EGFP was adjusted according to the fluorescence. Mean values and standard deviations were calculated from experiments performed at least in triplicate. Nanotemper analysis software V1.5.41 was applied to analyze data.
We used microscale thermophoresis (MST) to quantitatively measure binding constants between the compounds and ShhN (Table S5 and Figure S1). A ShhN-EGFP fusion protein was constructed, expressed, and purified from bacterial cells. In MST binding assays, ShhN-EGFP was kept at a constant concentration according to the fluorescence signal. Different concentrations of the molecules were tested and dissociation constants (Kd) were derived.

ShhN = target: T2, ShhN (Homo sapiens, UniProt Q15465); experiment: NanoDSF thermal stability; assay type: binding; conditions: ShhN 0.2 mg/mL
T2 construct: PET-28(a)-human ShhN (Shh 24-197) plasmid; His (N); made in house; host or cells: Escherichia coli Rosetta (DE3)
Protocol: Measurements were performed using a Prometheus NT.48 instrument (NanoTemper Inc., Germany). ShhN was diluted to 0.2 mg/mL in buffer contained 10 mM HEPES, pH 7.4, 150 mM NaCl, and 5% DMSO. Measurements were carried out using 70% power with standard Prometheus NT.48 capillaries. The heating was 1.0°C/min from 20 to 95°C.
To gain further insight into the effects of inhibitors against ShhN, a NanoDSF experiment was conducted.

[3] = MST, ShhN-EGFP, mean±SD for three independent experiments, read-out: Kd

T1 sequence (Q15465 24-197): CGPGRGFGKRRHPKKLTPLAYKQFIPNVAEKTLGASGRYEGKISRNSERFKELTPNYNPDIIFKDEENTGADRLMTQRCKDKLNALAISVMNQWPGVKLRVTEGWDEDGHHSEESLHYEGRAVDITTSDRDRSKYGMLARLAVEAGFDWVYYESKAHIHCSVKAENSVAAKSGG
T2 sequence (Q15465 24-197): as above

Nc1nc(NCC2CCCO2)nc(NCc2ccco2)c1[N+](=O)[O-] (stereo not drawn) [Compound 7_2d2] showed an inhibition at 5 µM [1] of 94 ± 4% and an IC50 [1] of 3200 ± 700 nM.

N#Cc1c(N)nc(NCCCN2CCOCC2)nc1-c1ccc(Cl)cc1 [Compound 7_3d11] gave an IC50 [1] of 1200 ± 200 nM.

In the case of O=C(C[C@@H]1C/C=C/CCC(=O)O[C@H](c2ccccc2)CNC1=O)NCc1ccc(Cl)cc1 [Robotnikinin], the IC50 [1] is listed as 4400 ± 900 nM, the “Relative mRNA expression of Gli1 (effect in words)” value [2] is listed as “did not inhibit Gli1 mRNA expression” and the IC50 (Shh) is listed as 15000 nM. For the same compound, the IC50 (Shh; listed as robotnikinin) was about 15000 nM.

Work on OC(CNCc1ccc2c(c1)OCO2)COc1ccc(-c2csnn2)cc1 (stereo not drawn) [Compound 2] yielded an IC50 [1] of 1700 ± 100 nM and a Kd (ShhN-EGFP) of 8400 ± 900 nM.

Compound Nc1nc(NCCCN2CCOCC2)nc(NCc2ccco2)c1[N+](=O)[O-] [Compound 7] has an IC50 [1] of 2200 ± 300 nM and a Kd (ShhN-EGFP; [3]) of 6200 ± 600 nM.

Compound c1ccc(COC(CNC2CCCCC2)CNC2CCCCC2)cc1 [Compound 3] has an IC50 [1] of 2200 ± 200 nM and a Kd (ShhN-EGFP; [3]) of 3100 ± 300 nM.

In the case of OCCCNCC(O)Cn1c2ccc(Br)cc2c2cc(Br)ccc21 (stereo not drawn) [Compound 5], the IC50 [1] is reported as 2000 ± 300 nM and the Kd (ShhN-EGFP) is reported as 4500 ± 600 nM.

For CCN(CC)S(=O)(=O)c1ccc(C(=O)Nc2sc3c(c2C(N)=O)CCN(C)C3)cc1 [Compound 4], the IC50 [1] was 2700 ± 200 nM and the “MST binding signal / dose-response (in words)” value (ShhN-EGFP; ShhN-EGFP) was “did not reach saturation”.

Nc1nc(NCCN2CCOCC2)nc(NCc2ccco2)c1[N+](=O)[O-] [Compound 7_2d3] gave an inhibition at 5 µM [1] of 68 ± 12% and an IC50 [1] of 2600 ± 300 nM.

With Nc1nc(Nc2ccccc2F)nc(NCc2ccco2)c1[N+](=O)[O-] [Compound 7_2d9] the inhibition at 5 µM [1] was 94 ± 3% and the IC50 [1] was 5900 ± 1700 nM.

With CCOC(=O)c1c(C)n(-c2ccc(C)cc2)c2ccc(OCC(O)CNCCCO)cc12 (stereo not drawn) [Compound 6] the IC50 [1] was 1400 ± 400 nM and the Kd (ShhN-EGFP; [3]) was 5800 ± 500 nM.

CCOc1ccc(Nc2nc(N)c([N+](=O)[O-])c(NCc3ccco3)n2)cc1 [Compound 7_2d6] showed an inhibition at 5 µM [1] of 97 ± 7% and an IC50 [1] of 2000 ± 800 nM.

Compound CCN1CCN(c2nc(Nc3cccc(Cl)c3)c3cnn(-c4ccccc4)c3n2)CC1 [Compound 7_3d4] has an inhibition at 5 µM [1] of 105 ± 5% and an IC50 [1] of 600 ± 100 nM.

With c1ccc(Nc2nc(NC3CCCCCC3)nc3c2cnn3-c2ccccc2)cc1 [Compound 7_3d2] the inhibition at 5 µM [1] was 93 ± 1% and the IC50 [1] was 1600 ± 600 nM.

Nc1nc(Nc2cccc(F)c2)nc(NCc2ccco2)c1[N+](=O)[O-] [Compound 7_2d8] gave an inhibition at 5 µM [1] of 101 ± 8% and an IC50 [1] of 2400 ± 400 nM.

In the case of CS(=O)(=O)c1ccc(C(=O)Nc2ccc(Cl)c(-c3ccccn3)c2)c(Cl)c1 [GDC-0449], the “Relative mRNA expression of Gli1 (effect in words)” value [2] is reported as “positive control for inhibition of the expression of Gli1 mRNA”.

With Cc1cc(C)c(CSC2=NCCN2)c(C)c1CSC1=NCCN1 [Compound 1] the IC50 [1] was 2300 ± 200 nM and the Kd (ShhN-EGFP; [3]) was 7000 ± 800 nM.

For Nc1nc(Nc2ccc(Cl)cc2)nc(NCc2ccco2)c1[N+](=O)[O-] [Compound 7_2d7], the inhibition at 5 µM [1] was 102 ± 3% and the IC50 [1] was 2100 ± 200 nM.

For CCN(CC)CCNc1nc(Nc2cccc(Cl)c2)c2cnn(-c3ccccc3)c2n1 [Compound 7_3d3], the inhibition at 5 µM [1] was 107 ± 1%, the IC50 [1] was about 400 nM and the “Thermal stability of ShhN (in words)” value (ShhN) was “improved the thermal stability of ShhN better than 7”.
